Experimental data reported in patent publication US11090304B2 (Amgen Inc., priority 2018, dated 2021).

biological target: GDP-bound KRAS protein (aa 1-169), containing both G12C and C118A amino acid substitutions (Homo sapiens, UniProt P01116, C118A/G12C); assay: Coupled nucleotide exchange assay (SOS-mediated, AlphaScreen); assay type: biochemical; settings: 5 min compound pre-incubation
Sequence (P01116 1-169 isoform P01116-2 G12C/C118A): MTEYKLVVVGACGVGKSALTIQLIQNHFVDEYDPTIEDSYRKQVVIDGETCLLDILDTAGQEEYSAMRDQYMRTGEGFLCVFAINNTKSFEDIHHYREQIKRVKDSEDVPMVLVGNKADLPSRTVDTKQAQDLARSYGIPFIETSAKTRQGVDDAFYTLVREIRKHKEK

Coupled exchange IC50 (5 min)	SMILES
2.71 | nda μM	C=CC(=O)N1CCN(c2nc(=O)n(-c3ccccc3C(C)C)c3nc(-c4ccc(F)cc4O)c(Cl)cc23)[C@@H](C)C1 (single isomer, unassigned) [Example 54-77-1]
7.26 | nda μM	C=CC(=O)N1CCN(c2nc(=O)n(-c3ccccc3C(C)C)c3nc(-c4cc(F)ccc4O)c(Cl)cc23)[C@@H](C)C1 (single isomer, unassigned) [Example 54-78-1]
1.36 | nda μM	C=CC(=O)N1CCN(c2nc(=O)n(-c3ccccc3C(C)C)c3nc(-c4cc(O)ccc4F)c(Cl)cc23)[C@@H](C)C1 (single isomer, unassigned) [Example 54-88-2]
1.52 | nda μM	C=CC(=O)N1CCN(c2nc(=O)n(-c3ccccc3C3(C)CC3)c3nc(-c4ccccc4F)c(Cl)cc23)[C@@H](C)C1 (single isomer, unassigned) [Example 54-99-1]
1.48 | nda μM	C=CC(=O)N1CCN(c2nc(=O)n(-c3cccnc3C(C)(C)C)c3nc(-c4c(O)cccc4F)c(Cl)cc23)[C@@H](C)C1 (single isomer, unassigned) [Example 54-103-2]
0.743 | nda μM	C=CC(=O)N1CCN(c2nc(=O)n(-c3c(C(C)C)cccc3N(C)C)c3nc(-c4ccccc4F)c(Cl)cc23)[C@@H](C)C1 (single isomer, unassigned) [Example 54-104-1]
0.731 | nda μM	C=CC(=O)N1CCN(c2nc(=O)n(-c3c(OC)ncnc3C(C)C)c3nc(-c4ccccc4F)c(Cl)cc23)[C@@H](C)C1 (single isomer, unassigned) [Example 54-107-1]
7.71 | nda μM	C=CC(=O)N1CCN(c2nc(=O)n(-c3cncnc3C(C)(C)C)c3nc(-c4ccccc4F)c(Cl)cc23)[C@@H](C)C1 (single isomer, unassigned) [Example 54-110-1]
5.02 | nda μM	C=CC(=O)N1CCN(c2nc(=O)n(-c3cccnc3C(C)(C)C)c3nc(-c4ccccc4F)c(Cl)cc23)[C@@H](C)C1 (single isomer, unassigned) [Example 54-112-2]
0.642 | nda μM	C=CC(=O)N1CCN(c2nc(=O)n(-c3c(C)nc(C)nc3C(C)C)c3nc(-c4c(O)cccc4F)c(Cl)cc23)[C@@H](C)C1 (single isomer, unassigned) [Example 55-4-2]
0.863 | nda μM	C=CC(=O)N1CCN(c2nc(=O)n(-c3c(C)ccnc3N(C)C)c3nc(-c4ccccc4F)c(Cl)cc23)[C@@H](C)C1 (single isomer, unassigned) [Example 55-7-1]
0.722 | nda μM	C=CC(=O)N1CCN(c2nc(=O)n(-c3c(C)ncnc3C(C)C)c3nc(-c4ccccc4F)c(Cl)cc23)[C@@H](C)C1 (single isomer, unassigned) [Example 55-13-1]
1.05 | nda μM	C=CC(=O)N1CCN(c2nc(=O)n(-c3c(C)cc(N(C)C)cc3C(C)C)c3nc(-c4ccccc4F)c(Cl)cc23)[C@@H](C)C1 (single isomer, unassigned) [Example 55-16-1]
18.55 | nda μM	C=CC(=O)N1CCN(c2nc(=O)n(-c3nccnc3C(C)(C)C)c3nc(-c4c(O)cccc4F)c(Cl)cc23)[C@@H](C)C1 (single isomer, unassigned) [Example 55-23-1]
36.9 | nda μM	C=CC(=O)N1CCN(c2nc(=O)n(-c3c(O)cccc3C(C)C)c3nc(-c4ccccc4F)c(Cl)cc23)[C@@H](C)C1 (single isomer, unassigned) [Example 55-26-1]
0.534 | nda μM	C=CC(=O)N1CCN(c2nc(=O)n(-c3c(C)cnn3C(C)(C)C)c3nc(-c4ccccc4F)c(Cl)cc23)[C@@H](C)C1 (single isomer, unassigned) [Example 55-38-1]
1.795 | nda μM	C=CC(=O)N1CCN(c2nc(=O)n(-c3c(C)ncnc3C(C)C)c3nc(-c4cc(F)ccc4F)c(Cl)cc23)[C@@H](C)C1 (single isomer, unassigned) [Example 55-39-1]
1.02 | nda μM	C=CC(=O)N1CCN(c2nc(=O)n(-c3c(C)ncnc3C(C)C)c3nc(-c4cc(C)ccc4F)c(Cl)cc23)[C@@H](C)C1 (single isomer, unassigned) [Example 55-40-1]
2.87 | nda μM	C=CC(=O)N1CCN(c2nc(=O)n(-c3c(CO)cccc3C(C)C)c3nc(-c4ccccc4F)c(Cl)cc23)[C@@H](C)C1 (single isomer, unassigned) [Example 55-43-1]
5.29 | nda μM	C=CC(=O)N1CCN(c2nc(=O)n(-c3ccccc3S(F)(F)(F)(F)F)c3nc(-c4c(O)cccc4F)c(Cl)cc23)[C@@H](C)C1 (single isomer, unassigned) [Example 56-1-1]
2.47 | nda μM	C=CC(=O)N1CCN(c2nc(=O)n(-c3c(C)ccnc3CC)c3nc(-c4c(O)cccc4F)c(F)cc23)[C@@H](C)C1 (single isomer, unassigned) [Example 57-1-2]
8.89 | nda μM	C=CC(=O)N1CCN(c2nc(=O)n(-c3ccccc3C(C)C)c3nc(-c4ccccc4F)c(F)cc23)[C@@H](C)C1 (single isomer, unassigned) [Example 57-7-1]

Coupled exchange IC50 (5 min)	SMILES
1.46 | nda μM	C=CC(=O)N1CCN(c2nc(=O)n(-c3c(C)cccc3CC)c3nc(-c4ccccc4F)c(F)cc23)[C@@H](C)C1 (single isomer, unassigned) [Example 57-13-1]
8.13 | nda μM	C=CC(=O)N1CCN(c2nc(=O)n(-c3c(C)cccc3CC)c3nc(-c4ccccc4F)c(F)cc23)[C@@H](C)C1 (single isomer, unassigned) [Example 57-13-2]
1.8 | nda μM	C=CC(=O)N1CCN(c2nc(=O)n(-c3c(C)cccc3CC)c3nc(-c4c(O)cccc4F)c(F)cc23)[C@@H](C)C1 (single isomer, unassigned) [Example 57-14-2]
1.76 | nda μM	C=CC(=O)N1CCN(c2nc(=O)n(-c3c(C)ccnc3CC)c3nc(-c4ccccc4F)c(F)cc23)[C@@H](C)C1 (single isomer, unassigned) [Example 57-16-1]
7.56 | nda μM	C=CC(=O)N1CCN(c2nc(=O)n(-c3c(C)ccnc3CC)c3nc(-c4ccccc4F)c(F)cc23)[C@@H](C)C1 (single isomer, unassigned) [Example 57-16-2]
3.9 | nda μM	C=CC(=O)N1CCN(c2nc(=O)n(-c3c(C)cccc3C(C)(C)C)c3nc(-c4c(O)cccc4F)c(F)cc23)[C@@H](C)C1 (single isomer, unassigned) [Example 57-17-2]
5.95 | nda μM	C=CC(=O)N1CCN(c2nc(=O)n(-c3ccccc3C(C)(C)C)c3nc(-c4c(O)cccc4F)c(F)cc23)[C@@H](C)C1 (single isomer, unassigned) [Example 58-1-1]
4.82 | nda μM	C=CC(=O)N1CCN(c2nc(=O)n(-c3c(C)ccnc3C(C)C)c3nc(-c4ccccc4F)c(F)cc23)[C@@H](C)C1 (single isomer, unassigned) [Example 58-4-2]
5.6 | nda μM	C=CC(=O)N1CCN(c2nc(=O)n(-c3c(C)ccnc3C(C)C)c3nc(-c4cc(O)ccc4F)c(F)cc23)[C@@H](C)C1 (single isomer, unassigned) [Example 58-5-1]
8.63 | nda μM	C=CC(=O)N1CCN(c2nc(=O)n(-c3c(C)ccnc3C(C)C)c3nc(-c4cc(N)ccc4F)c(F)cc23)[C@@H](C)C1 (single isomer, unassigned) [Example 58-6-1]
2.02 | nda μM	C=CC(=O)N1CCN(c2nc(=O)n(-c3c(C)ccnc3C(C)C)c3nc(-c4cc(N)ccc4Cl)c(F)cc23)[C@@H](C)C1 (single isomer, unassigned) [Example 58-8-2]
6.31 | nda μM	C=CC(=O)N1CCN(c2nc(=O)n(-c3c(C)ccnc3C(C)C)c3nc(-c4ccc(F)cc4F)c(F)cc23)[C@@H](C)C1 (single isomer, unassigned) [Example 58-10-2]
1.56 | nda μM	C=CC(=O)N1CCN(c2nc(=O)n(-c3c(C)cccc3C3CC3)c3nc(-c4c(O)cccc4F)c(F)cc23)[C@@H](C)C1 (single isomer, unassigned) [Example 58-13-1]
11.6 | nda μM	C=CC(=O)N1CCN(c2nc(=O)n(-c3c(C(C)C)ccnc3C)c3nc(-c4ccccc4F)c(F)cc23)[C@@H](C)C1 (single isomer, unassigned) [Example 58-16-1]
33.2 | nda μM	C=CC(=O)N1CCN(c2nc(=O)n(-c3ccccc3C(C)(C)C)c3nc(-c4ccccc4F)c(F)cc23)[C@@H](C)C1 (single isomer, unassigned) [Example 58-17-1]
4.06 | nda μM	C=CC(=O)N1CCN(c2nc(=O)n(-c3c(C4CC4)ccnc3C)c3nc(-c4c(O)cccc4F)c(F)cc23)[C@@H](C)C1 (single isomer, unassigned) [Example 58-19-1]
16.2 | nda μM	C=CC(=O)N1CCN(c2nc(=O)n(-c3c(C4CC4)ccnc3C)c3nc(-c4ccccc4F)c(F)cc23)[C@@H](C)C1 (single isomer, unassigned) [Example 58-20-1]
11.8 | nda μM	C=CC(=O)N1CCN(c2nc(=O)n(-c3ccccc3C3(C(F)(F)F)CC3)c3nc(-c4c(O)cccc4F)c(F)cc23)[C@@H](C)C1 (single isomer, unassigned) [Example 59-1-1]
1.1 | nda μM	C=CC(=O)N1CCN(c2nc(=O)n(-c3ccccc3C3(C(F)(F)F)CC3)c3nc(-c4c(O)cccc4F)c(F)cc23)[C@@H](C)C1 (single isomer, unassigned) [Example 59-1-2]
7.49 | nda μM	C=CC(=O)N1CCN(c2nc(=O)n(-c3c(F)cccc3C(C)C)c3nc(-c4c(O)cccc4F)c(F)cc23)[C@@H](C)C1 (single isomer, unassigned) [Example 59-2-2]
33 | nda μM	C=CC(=O)N1CCN(c2nc(=O)n(-c3c(F)cccc3C(C)C)c3nc(-c4ccccc4F)c(F)cc23)[C@@H](C)C1 (single isomer, unassigned) [Example 59-3-2]
